The values that follow come from patent US11820729B2 (Johnson & Johnson Consumer Inc., priority 2014, dated 2023).

Data set [1] has as its system 16-hour salivary biofilm on pellicle coated hydroxyapatite pegs. Briefly: Prevention assay: prevention of bacterial attachment to pellicle coated hydroxyapatite pegs, ATP bioluminescence. The note with it: for ability to prevent bacterial attachment / preventing bacterial attachment the best: simple solution solvent base formulas (Table 11); for prevention of bacterial attachment in alcohol free full formulations: Table 15 formulations, water as the only solvent; for prevention of bacterial attachment in alcohol-free full formulations: Table 17 formulations, water and propylene glycol as solvents. Format: cell-based. The method, then: The formulations in Examples 2-4, 6, 8 and 9 were prepared and test for prevention of bacterial attachment using the prevention assay. In this assay hydroxyapatite-coated polystyrene peg plate (96 pegs, N=8 per group) was exposed to saliva for one minute to form a pellicle at a temperature of 35 C. Then, for each formulation, eight pegs (N=8) were pre-treated for ten minutes with the formulation using an orbital shaker set to 500 RPM at room temperature. As a negative control, eight pegs (N=8) were pre-treated for ten minutes with sterile water. Next, a 16-hour salivary biofilm was grown on these polystyrene peg plates at a temperature of 35 C.
After all treatments were complete, the biofilm from each peg was neutralized and rinsed. The biofilm was harvested via sonication using a Q-Sonica Q700 Ultrasonic Liquid Processor with 431MP4-00 microplate horn Damper and 0.5:1 reverse gain booster (Q-Sonica, Newtown, Conn.). Using a Celsis Rapid Detection RapiScreen kit (Celsis International PLC, Chicago, Ill.), the bacteria were lysed with Celsis Luminex and then the adenosine triphosphate (ATP) from the lysed bacteria was measured using the bioluminescence marker Celcis Luminate and a Centro LB 960 Microplate Luminometer supplied by Berthold Technologies (Wildbad, Germany). Data were reported in log RLU (relative light units) where decreasing log RLUs indicated fewer viable bacteria remained on the biofilm substrate. The log RLUs for the prevention assay are shown on Tables 2, 4, 6, 10, 14, and 16.

Data set [2] has as its system S. mutans biofilm. Nature of the data set: S. mutans single species kill assay (in-vitro biofilm model). Format: cell-based. The note with it: simple solution formulas (Table 13), 30 second treatment. How it is done: The formulations listed in Example 7 were prepared and tested using an in-vitro single species S. mutans biofilm model. A 24-hour S. mutans biofilm is grown on a polystyrene peg plate (96 pegs, N=6 per test group). The pegs were subsequently treated for thirty seconds with each of formulations H and I, as well as positive and negative controls. The treatment is applied as a single thirty (30) second treatment. The positive control is a commercially available essential oil mouth rinse. The negative control is sterile water. After treatment the biofilm is neutralized and rinsed. The biofilm is harvested via sonication using a Misonix Ultrasonic Liquid Processor (Farmingdale, N.Y.). Using a Celsis Rapid Detection RapiScreen kit (Celsis International PLC, Chicago), the bacteria are lysed with Celsis Luminex and then the adenosine triphosphate (ATP) from the lysed bacteria is measured using the bioluminescence marker LB960 Microplate Luminometer supplied by Berthold (Wildbad, Germany). Data are reported in log RLU (relative light units) where decreasing log RLUs indicates fewer viable bacteria remaining on the biofilm substrate.

Data set [3] is described as follows: HPLC quantification of compound remaining after storage at 50° C. Format: physicochemical. The note with it: storage at 50° C. for 4 and 8 weeks (Table 13 formulas). The method, then:
Briefly, formulations containing either LAE or any of the 26 compounds and standards are diluted into a solution of 50% acetonitrile and 50% water. They are evaluated on an Agilent HPLC using a Zorbax ion exchange column. In the method, 10 uL of the sample is withdrawn and ran through the HPLC with a 40% potassium phosphate (molarity at pH 3.0) 60% acetonitrile mobile phase. […] The molecule peak is auto integrated using the Online Agilent HPLC software. Comparisons are made to the standard to identify the % of compound remaining following storage.

For the molecule `CCCCCCCCCCCNC(=O)C(CCCNC(=N)N)NC(=O)CCCCCCC` (centres unmarked) [Compound 26, N-(5-guanidino-1-oxo-1-(undecylamino)pentan-2-yl)octanamide], in data set [1], the “ability to prevent bacterial attachment” value is recorded as “have the ability to prevent bacterial attachment” and the “preventing bacterial attachment the best” value is on record as “preventing bacterial attachment the best”.
As to `CCCCCCCCCCCC(=O)NC(CCCNC(=N)N)C(=O)NC` (centres unmarked) [Compound 6], in data set [1], the “prevention of bacterial attachment in alcohol free full formulations” value (shortened to “prevention … in alcohol free full formulations”) is on record as “Prevent Bacterial Attachment”, the “prevention of bacterial attachment in alcohol-free full formulations” value (shortened to “prevention … in alcohol-free full formulations”) is “Prevent Bacterial Attachment”, the “ability to prevent bacterial attachment” value is given as “have the ability to prevent bacterial attachment” and the “preventing bacterial attachment the best” value was “preventing bacterial attachment the best”. Moreover, the “log reduction in S. mutans” value in data set [2] was “do not Result in More than a One Log Reduction in S. mutans”.
For the molecule `CCCCCCCCCCCC(=O)NC(CCCN)C(=O)NCC` (centres unmarked) [Compound 12, N-[4-amino-1-(ethylcarbamoyl)butyl]dodecanamide], in data set [1], the “prevention … in alcohol free full formulations” value is recorded as “Prevent Bacterial Attachment”, the “prevention … in alcohol-free full formulations” value was “Prevent Bacterial Attachment”, the “ability to prevent bacterial attachment” value is “have the ability to prevent bacterial attachment” and the “preventing bacterial attachment the best” value is “preventing bacterial attachment the best”. The “log reduction in S. mutans” value in data set [2] is “do not Result in More than a One Log Reduction in S. mutans”.
`CCCCCCCCCCCC(=O)NC(CCCNC(=N)N)C(=O)NCCCCCCCCCC` (centres unmarked) [Compound 23, N-(1-(decylamino)-5-guanidino-1-oxopentan-2-yl)dodecanamide]: the “ability to prevent bacterial attachment” value in data set [1] is listed as “have the ability to prevent bacterial attachment”.
In the case of `CCCCCCCCCC(=O)NC(CCCNC(=N)N)C(=O)NCC` (centres unmarked) [Compound 24, N-(1-(ethylamino)-5-guanidino-1-oxopentan-2-yl)decanamide], the “ability to prevent bacterial attachment” value in data set [1] is recorded as “have the ability to prevent bacterial attachment”.
For the molecule `CCCCCCCCCCCC(=O)NC(COP(=O)(O)O)C(=O)NCC` (centres unmarked) [Compound 16, 2-dodecanamido-3-(ethylamino)-3-oxopropyl dihydrogen phosphate], the “ability to prevent bacterial attachment” value in data set [1] was “have the ability to prevent bacterial attachment”.
Turning to `CCCCCCCC(=O)NC(CCCNC(=N)N)C(=O)NCC` (centres unmarked) [Compound 2, [amino({[4-(ethylcarbamoyl)-4-octanamidobutyl]amino})methylidene]azanium], the “structural stability via HPLC in simple solution formulations” value in data set [3] is “significant decrease in peak area”. In addition, in data set [1], the “prevention … in alcohol free full formulations” value is listed as “Prevent Bacterial Attachment”, the “prevention … in alcohol-free full formulations” value was “Prevent Bacterial Attachment”, the “ability to prevent bacterial attachment” value is listed as “have the ability to prevent bacterial attachment” and the “preventing bacterial attachment the best” value is “preventing bacterial attachment the best”. For the same molecule, the “log reduction in S. mutans” value in data set [2] is on record as “do not Result in More than a One Log Reduction in S. mutans”.
For `CCCCCCCCCCCCCCCCCC(=O)NC(CCCNC(=N)N)C(=O)NC` (centres unmarked) [Compound 7], the “log reduction in S. mutans” value in data set [2] is “do not Result in More than a One Log Reduction in S. mutans”.
Regarding `CCCCCCCC(=O)NC(CCCNC(=N)N)C(=O)NC` (centres unmarked) [Compound 1, [amino({[4-(methylcarbamoyl)-4-octanamidobutyl]amino})methylidene]azanium], in data set [1], the “prevention … in alcohol free full formulations” value is recorded as “Prevent Bacterial Attachment”, the “prevention … in alcohol-free full formulations” value was “Prevent Bacterial Attachment”, the “ability to prevent bacterial attachment” value was “have the ability to prevent bacterial attachment” and the “preventing bacterial attachment the best” value is “preventing bacterial attachment the best”. Moreover, the “log reduction in S. mutans” value in data set [2] is listed as “do not Result in More than a One Log Reduction in S. mutans”.
With `CCCCCCCCCCCNC(=O)C(CCCN)NC(=O)CCCCCCC` (centres unmarked) [Compound 18, N-(5-amino-1-oxo-1-(undecylamino)pentan-2-yl)octanamide], in data set [1], the “ability to prevent bacterial attachment” value was “have the ability to prevent bacterial attachment” and the “preventing bacterial attachment the best” value was “preventing bacterial attachment the best”.
On to `CCCCCCCCCCCC(=O)NC(CCCNC(=N)N)C(=O)NCCCCCCCC` (centres unmarked) [Compound 22, N-(5-guanidino-1-(octylamino)-1-oxopentan-2-yl)dodecanamide], for which, in data set [1], the “ability to prevent bacterial attachment” value was “have the ability to prevent bacterial attachment” and the “preventing bacterial attachment the best” value is listed as “preventing bacterial attachment the best”.
`CCCCCCCCCCCC(=O)NC(CCCN)C(=O)NCCCCCC` (centres unmarked) [Compound 17, N-(5-amino-1-(hexylamino)-1-oxopentan-2-yl)dodecanamide]: in data set [1], the “ability to prevent bacterial attachment” value is on record as “have the ability to prevent bacterial attachment” and the “preventing bacterial attachment the best” value is recorded as “preventing bacterial attachment the best”.
In the case of `CCCCCCCCCCCC(=O)NC(CCCCN)C(=O)NCC` (centres unmarked) [Compound 11, N-[5-amino-1-(ethylcarbamoyl)pentyl]dodecanamide], in data set [1], the “prevention … in alcohol free full formulations” value was “Prevent Bacterial Attachment”, the “prevention … in alcohol-free full formulations” value was “Prevent Bacterial Attachment” and the “ability to prevent bacterial attachment” value is recorded as “have the ability to prevent bacterial attachment”. For the same molecule, the “log reduction in S. mutans” value in data set [2] is given as “do not Result in More than a One Log Reduction in S. mutans”.
`CCCCCCCCNC(=O)C(CCCN)NC(=O)CCCCCCC` (centres unmarked) [Compound 19, N-(5-amino-1-(octylamino)-1-oxopentan-2-yl)octanamide]: in data set [1], the “ability to prevent bacterial attachment” value was “have the ability to prevent bacterial attachment” and the “preventing bacterial attachment the best” value is recorded as “preventing bacterial attachment the best”.
With `CCCCCCCCNC(=O)C(CCCNC(=N)N)NC(=O)CCCCCCC` (centres unmarked) [Compound 21, N-(5-guanidino-1-(octylamino)-1-oxopentan-2-yl)octanamide], in data set [1], the “ability to prevent bacterial attachment” value is “have the ability to prevent bacterial attachment” and the “preventing bacterial attachment the best” value is reported as “preventing bacterial attachment the best”.
Take `CCCCCCCCCCCCCC(=O)NC(CCCNC(=N)N)C(=O)NCC` (centres unmarked) [Compound 20, N-(1-(ethylamino)-5-guanidino-1-oxopentan-2-yl)tetradecanamide]: in data set [1], the “ability to prevent bacterial attachment” value is recorded as “have the ability to prevent bacterial attachment”.
On to `CCCCCCCCCCCNC(=O)C(CCCNC(=N)N)NC(=O)CCCCCCCCCCC` (centres unmarked) [Compound 25, N-(5-guanidino-1-oxo-1-(undecylamino)pentan-2-yl)dodecanamide], for which the “ability to prevent bacterial attachment” value in data set [1] is listed as “have the ability to prevent bacterial attachment”.
Take `CCCCCCCC(=O)NC(CCCNC(=N)N)C(=O)NCCCCCC` (centres unmarked) [Compound 3, [amino({[4-(hexylcarbamoyl)-4-octanamidobutyl]amino})methylidene]azanium]: in data set [1], the “prevention … in alcohol free full formulations” value was “Prevent Bacterial Attachment”, the “prevention … in alcohol-free full formulations” value was “Prevent Bacterial Attachment”, the “ability to prevent bacterial attachment” value is “have the ability to prevent bacterial attachment” and the “preventing bacterial attachment the best” value is on record as “preventing bacterial attachment the best”. Further, in data set [2], the “log reduction in S. mutans” value is “do not Result in More than a One Log Reduction in S. mutans”.
For “[amino({[4-dodecanamido-4-(methylcarbamoyl)butyl]amino})methylidene]azanium [Compound 4]”, the “ability to prevent bacterial attachment” value in data set [1] is “have the ability to prevent bacterial attachment”. Moreover, the “log reduction in S. mutans” value in data set [2] is on record as “do not Result in More than a One Log Reduction in S. mutans”.
